In US10300051B2, “Cyclopropylamines as LSD1 inhibitors” (priority 2014, dated 2019) one finds IC50 data, which are given here for 4 compounds.

The test deals with LSD-1 enzyme (Homo sapiens (Human), UniProt O60341). The format is biochemical. The conditions noted are these: 1 nM LSD-1 enzyme, 1 hour preincubation at 25° C., Biotin-labeled Histone H3 peptide substrate. As to the method: Example A: LSD1 Histone Demethylase Biochemical Assay
LANCE LSD1/KDM1A demethylase assay—10 μL of 1 nM LSD-1 enzyme (ENZO BML-SE544-0050) in the assay buffer (50 mM Tris, pH 7.5, 0.01% Tween-20, 25 mM NaCl, 5 mM DTT) were preincubated for 1 hour at 25° C. with 0.8 μL compound/DMSO dotted in black 384 well polystyrene plates. […] Reactions were stopped by addition of 10 μL 1× LANCE Detection Buffer (PerkinElmer CR97-100) supplemented with 1.5 nM Eu-anti-unmodified H3K4 Antibody (PerkinElmer TRF0404), and 225 nM LANCE Ultra Streptavidin (PerkinElmer TRF102) along with 0.9 mM Tranylcypromine-HCl (Millipore 616431). After stopping the reactions plates were incubated for 30 minutes and read on a PHERAstar FS plate reader (BMG Labtech).
For orientation: IC50 means the concentration that inhibits the measured activity by half. A low value points to higher potency. `COc1ccc(CC2(CN[C@@H]3C[C@H]3c3ccccc3)CCN(CCC(=O)O)CC2)cc1` [Example 55, 3-[4-(4-methoxybenzyl)-4-({[(1R,2S)-2-phenylcyclopropyl]amino}methyl)piperidin-1-yl]propanoic Acid] returned an IC50 of less than 100 nM.
The compound `O=C(O)CCN1CCC(CN[C@@H]2C[C@H]2c2ccccc2)(Cc2cccc(O[C@@H]3CCOC3)c2)CC1` [Example 35, 3-(4-({[(1R,2S)-2-phenylcyclopropyl]amino}methyl)-4-{3-[(3R)-tetrahydrofuran-3-yloxy]benzyl}piperidin-1-yl)propanoic Acid] showed an IC50 of less than 100 nM.
Take `C[C@H](N)C(=O)N1CCC(CN[C@@H]2C[C@H]2c2ccccc2)(Cc2ccc(F)cc2)CC1` [Example 14, (1R,2S)—N-{[1-[(2S)-2-aminopropanoyl]-4-(4-fluorobenzyl)piperidin-4-yl]methyl}-2-phenylcyclopropanamine]: the IC50 was less than 100 nM.
The compound `O=C(O)CN1CCC(CN[C@@H]2C[C@H]2c2ccccc2)(Cc2ccc(F)cc2)CC1` [Example 13, [4-(4-fluorobenzyl)-4-({[(1R,2S)-2-phenylcyclopropyl]amino}methyl)piperidin-1-yl]acetic] displayed an IC50 of less than 100 nM.
